Where a name gives a salt, the structure may show the parent alone.
Row | melting point [°C] | Compound
1 | 159 to 160 | COc1ccccc1-c1cc(C(F)(F)F)nn1-c1ccc(S(N)(=O)=O)c(F)c1 (as salt: trifluoroacetate) [Example 9, 2-Fluoro-4-[5-(2-methoxyphenyl)-3-(trifluoromethyl)-1H-pyrazol-1-yl]benzenesulfonamide]
2 | 126 to 128 | Cc1ccc(-c2cc(C(F)(F)F)nn2-c2ccc(S(N)(=O)=O)c(F)c2)cc1 (as salt: trifluoroacetate) [Example 4, 4-[5-(4-Methylphenyl)-3-(trifluoromethyl)-1H-pyrazol-1-yl]-2-fluorobenzenesulfonamide]
3 | 170.9 to 171 | NS(=O)(=O)c1ccc(-c2cscc2-c2ccccc2)cc1F [Example 1, 2-Fluoro-4-(4-phenyl-3-thienyl)benzenesulfonamide]
4 | 124 to 126 | COc1ccc(-c2cc(C(F)(F)F)nn2-c2ccc(S(N)(=O)=O)c(F)c2)cc1F (as salt: trifluoroacetate) [Example 6, 4-[5-(3-Fluoro-4-methoxy)-3-trifluoromethyl-1H-pyrazol-1-yl]-2 fluorobenzenesulfonamide]
5 | 152 to 153 | CS(=O)(=O)c1ccc(-c2cc(C(F)(F)F)nn2-c2ccc(C#N)cc2)cc1F [Example 16, 4-[5-[3-Fluoro-4-(methylsulfonyl)phenyl]-3-(trifluoromethyl)-1H-pyrazol-1-yl]benzonitrile]
6 | 140 to 141 | CS(=O)(=O)c1ccc(-c2cscc2-c2ccccc2)cc1F [Example 2, 3-[3-Fluoro-4-(methylsulfonyl)phenyl]-4-phenylthiophene]
7 | 161 to 162 | CS(=O)(=O)c1ccc(C2=C(c3ccccc3)C(=O)OC2)cc1F [Example 24, 4-[3-Fluoro-4-(methylsulfonyl)phenyl]-3-phenyl-2(5H)-furanone]
8 | 138 to 139 | CS(=O)(=O)c1ccc(-c2cc(C(F)F)nn2C2CCCCC2)cc1F (as salt: trifluoroacetate) [Example 19, 1-Cyclohexyl-3-(difluoromethyl)-5-[3-fluoro-4-(methylsulfonyl)phenyl]-1H-pyrazole]
9 | 146 to 147 | Cc1ccc(-n2nc(C(F)F)cc2-c2ccc(S(C)(=O)=O)c(F)c2)cc1Cl (as salt: trifluoroacetate) [Example 20, 1-(3-Chloro-4-methylphenyl)-3-(difluoromethyl)-5-[3-fluoro-4-(methylsulfonyl)phenyl]-1H-pyrazole]
10 | 110 to 112 | CS(=O)(=O)c1ccc(-c2cc(C(F)(F)F)nn2-c2ccc(OC(F)(F)F)cc2)cc1F [Example 14, 5-[3-Fluoro-4-(methylsulfonyl)phenyl]-3-(trifluoromethyl)-1-[4-(trifluoromethoxy)phenyl]-1H-pyrazole]
11 | 228 to 229 | CS(=O)(=O)c1ccc(-c2cc(C(F)(F)F)nn2-c2ccc(F)cc2)cc1F [Example 11, 5-[3-Fluoro-4-(methylsulfonyl)phenyl]-1-(4-fluorophenyl)-3-(trifluoromethyl)-1H-pyrazole]
12 | 160 to 161 | Cc1ccc(-c2cc(C(F)F)nn2-c2ccc(S(N)(=O)=O)c(F)c2)cc1Cl [Example 3, 4-[5-(3-chloro-4-methylphenyl)-3-(difluoromethyl)-1H-pyrazol-1-yl]-2-fluorobenzenesulfonamide]
13 | 110 to 111 | CS(=O)(=O)c1ccc(-c2cc(C(F)F)nn2-c2cccc(C(F)(F)F)c2)cc1F (as salt: trifluoroacetate) [Example 21, 3-(Difluoromethyl)-5-[3-fluoro-4-(methylsulfonyl)-phenyl]-1-[3-(trifluoromethyl)-phenyl]-1H-pyrazole]
14 | 201 to 202 | CS(=O)(=O)c1ccc(-c2cc(C(F)F)nn2-c2ccc(F)cc2)cc1F (as salt: trifluoroacetate) [Example 18, 3-(Difluoromethyl)-5-[3-fluoro-4-(methylsulfonyl)phenyl]-1-(4-fluorophenyl)-1H-pyrazole]
15 | 127 to 130 | NS(=O)(=O)c1ccc(-n2nc(C(F)(F)F)cc2-c2ccc(F)cc2)cc1F (as salt: trifluoroacetate) [Example 8, 2-Fluoro-4-[5-(4-fluorophenyl)-3-(trifluoromethyl)-1H-pyrazol-1-yl]benzenesulfonamide]
16 | 228 to 229 | CS(=O)(=O)c1ccc(-c2cc(C(F)(F)F)nn2C2CCCCC2)cc1F [Example 12, 1-Cyclohexyl-5-[3-fluoro-4-(methylsulfonyl)phenyl]-3-(trifluoromethyl)-1H-pyrazole]
17 | 144 to 145 | Cc1ccc(-n2nc(C(F)(F)F)cc2-c2ccc(S(C)(=O)=O)c(F)c2)cc1Cl [Example 15, 1-(3-Chloro-4-methylphenyl)-5-[3-fluoro-4-(methylsulfonyl)phenyl]-3-(trifluoromethyl)-1H-pyrazole]
18 | 129 to 130 | Cc1cccc(-n2nc(C(F)(F)F)cc2-c2ccc(S(C)(=O)=O)c(F)c2)c1 [Example 17, 5-[3-Fluoro-4-(methylsulfonyl)phenyl]-1-(3-methylphenyl)-3-(trifluoromethyl)-1H-pyrazole]
19 | 176 to 177 | Cc1onc(-c2ccc(F)cc2)c1-c1ccc(S(N)(=O)=O)c(F)c1 [Example 22, 2-Fluoro-4-[3-(4-fluorophenyl)-5-methyl-4-isoxazolyl]benzenesulfonamide]
20 | 167 to 169 | COc1ccc(-c2cc(C(F)F)nn2-c2ccc(S(N)(=O)=O)c(F)c2)cc1F [Example 10, 4-[3-(Difluoromethyl)-5-(3-fluoro-4-methoxyphenyl)-1H-pyrazol-1-yl]-2-fluorobenzenesulfonamide]
21 | 140 to 141 | NS(=O)(=O)c1ccc(-n2nc(C(F)(F)F)cc2-c2ccc(Cl)cc2)cc1F (as salt: trifluoroacetate) [Example 5, 4-[5-(4-Chlorophenyl)-3-trifluoromethyl-1H-pyrazol-1-yl]-2-fluorobenizenesulfonamide]
